The target of assay [1] is STE20-like serine/threonine-protein kinase (Homo sapiens, UniProt Q9H2G2). The assay can be described thus: Selectivity interaction (KinomeScan (DiscoverX)) EUB0000698a SLK. The settings on record: at 10 µM.
In assay [2] the test system is T1, Receptor-type tyrosine-protein kinase FLT3 (Homo sapiens), P36888 [N841I].
T1 sequence (whole entry): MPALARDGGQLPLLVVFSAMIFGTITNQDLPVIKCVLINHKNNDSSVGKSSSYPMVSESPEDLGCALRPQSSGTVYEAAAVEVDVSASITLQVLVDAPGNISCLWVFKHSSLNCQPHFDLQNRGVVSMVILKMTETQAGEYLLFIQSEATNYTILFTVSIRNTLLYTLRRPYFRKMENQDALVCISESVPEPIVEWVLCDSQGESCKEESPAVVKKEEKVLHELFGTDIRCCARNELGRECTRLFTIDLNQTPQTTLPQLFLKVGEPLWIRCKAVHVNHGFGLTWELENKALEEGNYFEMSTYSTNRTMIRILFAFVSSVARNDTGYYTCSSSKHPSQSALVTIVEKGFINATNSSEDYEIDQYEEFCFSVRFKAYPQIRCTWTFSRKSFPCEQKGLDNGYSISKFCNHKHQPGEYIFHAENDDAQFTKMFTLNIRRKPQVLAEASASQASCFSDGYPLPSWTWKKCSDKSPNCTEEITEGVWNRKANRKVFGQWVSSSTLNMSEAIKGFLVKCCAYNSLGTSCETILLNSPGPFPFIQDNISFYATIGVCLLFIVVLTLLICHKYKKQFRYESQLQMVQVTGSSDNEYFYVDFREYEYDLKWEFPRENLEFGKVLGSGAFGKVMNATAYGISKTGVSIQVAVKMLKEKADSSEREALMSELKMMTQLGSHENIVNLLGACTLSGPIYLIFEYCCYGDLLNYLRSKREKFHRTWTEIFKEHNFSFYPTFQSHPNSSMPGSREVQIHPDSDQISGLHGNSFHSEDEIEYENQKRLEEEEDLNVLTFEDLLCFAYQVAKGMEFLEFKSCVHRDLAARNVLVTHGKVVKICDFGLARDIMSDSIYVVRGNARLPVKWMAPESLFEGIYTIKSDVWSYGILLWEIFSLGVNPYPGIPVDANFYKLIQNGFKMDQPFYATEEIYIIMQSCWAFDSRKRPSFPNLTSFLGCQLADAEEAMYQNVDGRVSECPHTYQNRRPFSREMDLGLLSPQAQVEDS
The assay can be described thus: (§1) Selectivity interaction (KinomeScan (DiscoverX)) EUB0000702a FLT3. The settings on record: at 1 µM.

Assay [3] addresses Receptor-type tyrosine-protein kinase FLT3 (Homo sapiens) (UniProt P36888). The assay is described as §1. To be noted: at 1 µM.
The test system of assay [4] is Receptor-type tyrosine-protein kinase FLT3 (Homo sapiens), P36888 [UNDEFINED MUTATION]. The assay is described as §1. To be noted: at 1 µM.
A further assay concerns the target Aurora kinase B (Homo sapiens, UniProt Q96GD4). The assay can be described thus: Selectivity interaction (KinomeScan (DiscoverX)) EUB0000702a AURKB. To be noted: at 1 µM.
Assay [5] concerns the target High affinity nerve growth factor receptor (Homo sapiens, UniProt P04629). The settings on record: at 1 µM.
Assay [6] concerns the target RAC-alpha serine/threonine-protein kinase (Homo sapiens, UniProt P31749). The assay can be described thus: Selectivity interaction (Kinase panel (University of Dundee)) EUB0000169b AKT1. The settings on record: at 10 µM.
Assay [7] addresses MAP kinase-activated protein kinase 5 (Homo sapiens) (UniProt Q8IW41). To be noted: at 10 µM.
The target of assay [8] is Rho-associated protein kinase 2 (Homo sapiens) (UniProt O75116). The assay can be described thus: Selectivity interaction (Kinase panel (University of Dundee)) EUB0000169b ROCK2. To be noted: at 10 µM.
Rho-associated protein kinase 2 (Homo sapiens), sequence (O75116 whole entry, looked up): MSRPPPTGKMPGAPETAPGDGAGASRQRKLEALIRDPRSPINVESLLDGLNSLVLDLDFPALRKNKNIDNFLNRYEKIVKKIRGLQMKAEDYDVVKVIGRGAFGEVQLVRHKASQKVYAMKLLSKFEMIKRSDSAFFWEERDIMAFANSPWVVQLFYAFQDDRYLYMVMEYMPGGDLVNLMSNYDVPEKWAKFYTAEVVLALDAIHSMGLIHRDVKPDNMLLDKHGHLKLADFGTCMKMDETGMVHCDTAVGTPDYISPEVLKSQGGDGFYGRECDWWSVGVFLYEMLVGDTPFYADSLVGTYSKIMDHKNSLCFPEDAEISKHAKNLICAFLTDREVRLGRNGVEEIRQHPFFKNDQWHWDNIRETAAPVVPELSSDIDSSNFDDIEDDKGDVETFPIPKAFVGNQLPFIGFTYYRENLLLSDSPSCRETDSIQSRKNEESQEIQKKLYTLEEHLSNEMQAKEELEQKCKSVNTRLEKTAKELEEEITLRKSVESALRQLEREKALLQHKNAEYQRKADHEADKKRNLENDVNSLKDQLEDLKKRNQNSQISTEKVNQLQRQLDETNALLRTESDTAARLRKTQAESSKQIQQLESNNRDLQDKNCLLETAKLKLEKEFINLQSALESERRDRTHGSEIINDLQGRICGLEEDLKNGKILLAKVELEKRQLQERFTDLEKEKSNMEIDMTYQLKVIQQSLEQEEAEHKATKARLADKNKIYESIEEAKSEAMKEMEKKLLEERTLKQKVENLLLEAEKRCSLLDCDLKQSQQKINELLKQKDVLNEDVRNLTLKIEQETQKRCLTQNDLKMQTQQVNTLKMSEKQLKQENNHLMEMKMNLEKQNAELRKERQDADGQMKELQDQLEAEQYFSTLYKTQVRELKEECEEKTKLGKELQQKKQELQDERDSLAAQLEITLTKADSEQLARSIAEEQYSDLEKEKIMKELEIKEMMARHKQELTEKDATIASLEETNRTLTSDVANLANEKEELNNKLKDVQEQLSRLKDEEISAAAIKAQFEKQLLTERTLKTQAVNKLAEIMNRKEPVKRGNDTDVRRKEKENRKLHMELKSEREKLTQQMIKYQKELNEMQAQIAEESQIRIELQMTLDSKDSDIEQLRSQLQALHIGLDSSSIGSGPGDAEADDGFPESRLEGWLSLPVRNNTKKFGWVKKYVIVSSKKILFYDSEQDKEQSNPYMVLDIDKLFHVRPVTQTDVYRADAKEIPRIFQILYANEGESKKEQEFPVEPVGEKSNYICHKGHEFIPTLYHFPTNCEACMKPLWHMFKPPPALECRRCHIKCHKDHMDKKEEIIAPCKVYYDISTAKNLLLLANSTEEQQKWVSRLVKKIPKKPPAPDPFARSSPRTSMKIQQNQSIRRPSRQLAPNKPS
Assay [9] addresses Mitogen-activated protein kinase kinase kinase 19 (Homo sapiens, UniProt Q56UN5). The assay can be described thus: Selectivity interaction (NanoBRET assay (HEK293T cells)) EUB0000305b MAP3K19. On the technique in general: Bioluminescence resonance energy transfer reports proximity on the nanometre scale.
Assay [10] deals with Aurora kinase A (Homo sapiens) (UniProt O14965). The assay can be described thus: Selectivity interaction (KinomeScan (DiscoverX)) EUB0000178b STK6. To be noted: at 1 µM.
Aurora kinase A (Homo sapiens), sequence (O14965 whole entry): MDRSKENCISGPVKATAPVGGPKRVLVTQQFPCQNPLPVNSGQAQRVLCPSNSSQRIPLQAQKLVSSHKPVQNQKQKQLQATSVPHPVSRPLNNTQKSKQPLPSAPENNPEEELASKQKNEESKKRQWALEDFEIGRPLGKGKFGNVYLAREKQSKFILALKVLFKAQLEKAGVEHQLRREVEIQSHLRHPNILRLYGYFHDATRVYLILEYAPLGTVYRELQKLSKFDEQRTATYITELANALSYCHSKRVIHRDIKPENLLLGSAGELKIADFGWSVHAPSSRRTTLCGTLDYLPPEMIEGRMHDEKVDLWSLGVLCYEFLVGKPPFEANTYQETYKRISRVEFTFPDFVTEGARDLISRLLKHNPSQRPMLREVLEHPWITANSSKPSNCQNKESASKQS
Assay [11] has as its system Tyrosine-protein kinase ABL1 (Homo sapiens), P00519 [T315I]. The assay can be described thus: (§2) Selectivity interaction (KinomeScan (DiscoverX)) EUB0000178b ABL1. The settings on record: at 1 µM.
For assay [12], the system named is Tyrosine-protein kinase ABL1 (Homo sapiens), P00519 [Q252H]. The description is as §2. To be noted: at 1 µM.
Assay [13] has as its system Tyrosine-protein kinase ABL1 (Homo sapiens), P00519 [M351T]. Described as §2. The settings on record: at 1 µM.
The target in assay [14] is T2, Receptor-interacting serine/threonine-protein kinase 4 (Homo sapiens) (UniProt P57078).
T2 sequence (whole entry): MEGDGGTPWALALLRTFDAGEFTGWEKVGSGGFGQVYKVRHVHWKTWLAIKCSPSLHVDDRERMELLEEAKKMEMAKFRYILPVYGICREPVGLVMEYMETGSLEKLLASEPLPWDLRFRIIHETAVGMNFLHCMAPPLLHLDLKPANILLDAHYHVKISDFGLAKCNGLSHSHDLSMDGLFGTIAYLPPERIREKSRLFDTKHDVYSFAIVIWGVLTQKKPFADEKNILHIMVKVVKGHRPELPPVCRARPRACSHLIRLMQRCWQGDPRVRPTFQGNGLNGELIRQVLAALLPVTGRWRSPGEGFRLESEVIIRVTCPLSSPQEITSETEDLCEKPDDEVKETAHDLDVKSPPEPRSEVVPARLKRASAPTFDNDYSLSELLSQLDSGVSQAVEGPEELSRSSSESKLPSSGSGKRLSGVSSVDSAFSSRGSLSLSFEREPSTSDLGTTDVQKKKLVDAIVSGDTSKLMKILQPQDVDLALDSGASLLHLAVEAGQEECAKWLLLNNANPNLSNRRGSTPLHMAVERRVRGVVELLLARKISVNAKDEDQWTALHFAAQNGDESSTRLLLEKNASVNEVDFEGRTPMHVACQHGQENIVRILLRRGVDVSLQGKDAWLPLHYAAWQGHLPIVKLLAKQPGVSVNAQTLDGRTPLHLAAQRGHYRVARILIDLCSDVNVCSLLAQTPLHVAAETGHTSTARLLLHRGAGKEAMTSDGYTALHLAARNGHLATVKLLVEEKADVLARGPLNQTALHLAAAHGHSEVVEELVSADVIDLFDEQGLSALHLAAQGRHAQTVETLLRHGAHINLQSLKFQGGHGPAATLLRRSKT
The assay can be described thus: Selectivity interaction (KinomeScan (DiscoverX)) EUB0000178b RIPK4. The settings on record: at 1 µM.

For assay [15], the target named is Tyrosine-protein kinase ABL1 (Homo sapiens, UniProt P00519, T315I). The assay can be described thus: Selectivity interaction (Enzymatic assay) EUB0000178b ABL1.
For assay [16], the target named is Dual specificity protein kinase TTK (Homo sapiens) (UniProt P33981). The assay can be described thus: Selectivity interaction (KinomeScan (DiscoverX)) EUB0000138c TTK. The settings on record: at 100 nM.
Dual specificity protein kinase TTK (Homo sapiens), sequence (P33981 whole entry): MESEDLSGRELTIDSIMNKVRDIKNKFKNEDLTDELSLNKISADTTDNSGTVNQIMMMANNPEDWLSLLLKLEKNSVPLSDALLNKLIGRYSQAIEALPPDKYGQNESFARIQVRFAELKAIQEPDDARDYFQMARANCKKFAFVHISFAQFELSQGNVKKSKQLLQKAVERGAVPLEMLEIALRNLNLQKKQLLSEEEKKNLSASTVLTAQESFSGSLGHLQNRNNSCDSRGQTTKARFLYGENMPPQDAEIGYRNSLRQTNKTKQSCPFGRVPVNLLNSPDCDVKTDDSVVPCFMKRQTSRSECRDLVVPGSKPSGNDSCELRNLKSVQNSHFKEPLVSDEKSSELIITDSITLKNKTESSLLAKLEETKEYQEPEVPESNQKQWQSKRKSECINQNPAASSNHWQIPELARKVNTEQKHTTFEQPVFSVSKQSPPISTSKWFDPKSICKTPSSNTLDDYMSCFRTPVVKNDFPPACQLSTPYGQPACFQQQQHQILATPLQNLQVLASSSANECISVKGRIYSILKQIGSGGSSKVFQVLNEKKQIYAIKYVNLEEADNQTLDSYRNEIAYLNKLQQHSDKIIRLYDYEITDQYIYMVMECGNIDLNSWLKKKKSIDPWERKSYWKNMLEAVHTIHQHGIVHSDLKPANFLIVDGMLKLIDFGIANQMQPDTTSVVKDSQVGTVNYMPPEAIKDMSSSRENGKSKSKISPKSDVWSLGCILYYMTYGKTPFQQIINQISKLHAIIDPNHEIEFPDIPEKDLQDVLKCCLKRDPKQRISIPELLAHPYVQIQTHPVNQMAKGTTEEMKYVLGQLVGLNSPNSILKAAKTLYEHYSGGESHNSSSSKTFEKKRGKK

Each structure is given as a SMILES string.

STE20-like serine/threonine-protein kinase, sequence (Q9H2G2 whole entry, looked up): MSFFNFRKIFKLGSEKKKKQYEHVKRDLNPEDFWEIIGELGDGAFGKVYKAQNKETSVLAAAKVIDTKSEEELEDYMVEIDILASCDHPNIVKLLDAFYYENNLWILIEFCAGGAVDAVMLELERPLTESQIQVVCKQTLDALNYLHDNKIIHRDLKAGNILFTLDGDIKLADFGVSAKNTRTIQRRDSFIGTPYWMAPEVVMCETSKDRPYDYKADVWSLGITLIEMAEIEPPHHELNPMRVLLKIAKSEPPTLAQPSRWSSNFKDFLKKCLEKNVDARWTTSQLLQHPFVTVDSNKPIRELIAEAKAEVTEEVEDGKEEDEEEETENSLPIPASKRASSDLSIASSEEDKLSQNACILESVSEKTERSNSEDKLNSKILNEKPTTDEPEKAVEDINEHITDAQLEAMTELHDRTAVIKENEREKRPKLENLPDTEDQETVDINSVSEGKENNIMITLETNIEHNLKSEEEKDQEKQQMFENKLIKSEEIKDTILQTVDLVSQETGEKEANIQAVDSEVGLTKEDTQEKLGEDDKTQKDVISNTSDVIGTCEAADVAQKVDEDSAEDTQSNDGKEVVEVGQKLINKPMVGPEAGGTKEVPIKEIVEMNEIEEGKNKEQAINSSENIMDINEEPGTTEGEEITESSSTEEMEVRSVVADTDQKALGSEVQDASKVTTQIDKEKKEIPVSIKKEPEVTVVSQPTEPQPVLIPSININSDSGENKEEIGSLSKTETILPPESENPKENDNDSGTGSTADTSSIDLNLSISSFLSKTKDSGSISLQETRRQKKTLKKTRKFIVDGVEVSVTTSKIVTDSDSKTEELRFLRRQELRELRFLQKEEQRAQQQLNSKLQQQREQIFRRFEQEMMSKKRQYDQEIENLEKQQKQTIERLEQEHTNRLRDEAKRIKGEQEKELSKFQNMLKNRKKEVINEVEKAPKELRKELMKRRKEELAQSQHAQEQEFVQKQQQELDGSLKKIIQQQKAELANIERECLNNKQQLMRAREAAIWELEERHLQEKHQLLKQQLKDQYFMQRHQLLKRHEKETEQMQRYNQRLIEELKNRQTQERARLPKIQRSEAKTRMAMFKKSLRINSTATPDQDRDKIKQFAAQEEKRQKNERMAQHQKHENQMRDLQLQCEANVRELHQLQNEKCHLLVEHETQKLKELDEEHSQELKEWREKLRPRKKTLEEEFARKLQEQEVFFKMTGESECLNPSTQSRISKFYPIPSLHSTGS
Aurora kinase B, sequence (Q96GD4 whole entry): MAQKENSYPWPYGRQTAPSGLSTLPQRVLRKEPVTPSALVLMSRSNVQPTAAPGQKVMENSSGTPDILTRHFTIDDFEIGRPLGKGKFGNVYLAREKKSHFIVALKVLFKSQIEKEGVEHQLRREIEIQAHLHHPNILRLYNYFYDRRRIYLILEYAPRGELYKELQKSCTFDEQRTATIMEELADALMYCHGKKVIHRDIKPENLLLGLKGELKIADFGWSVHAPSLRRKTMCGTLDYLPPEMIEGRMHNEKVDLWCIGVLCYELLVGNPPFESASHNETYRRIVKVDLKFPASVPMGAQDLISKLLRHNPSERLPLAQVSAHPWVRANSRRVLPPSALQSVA
RAC-alpha serine/threonine-protein kinase, sequence (P31749 whole entry): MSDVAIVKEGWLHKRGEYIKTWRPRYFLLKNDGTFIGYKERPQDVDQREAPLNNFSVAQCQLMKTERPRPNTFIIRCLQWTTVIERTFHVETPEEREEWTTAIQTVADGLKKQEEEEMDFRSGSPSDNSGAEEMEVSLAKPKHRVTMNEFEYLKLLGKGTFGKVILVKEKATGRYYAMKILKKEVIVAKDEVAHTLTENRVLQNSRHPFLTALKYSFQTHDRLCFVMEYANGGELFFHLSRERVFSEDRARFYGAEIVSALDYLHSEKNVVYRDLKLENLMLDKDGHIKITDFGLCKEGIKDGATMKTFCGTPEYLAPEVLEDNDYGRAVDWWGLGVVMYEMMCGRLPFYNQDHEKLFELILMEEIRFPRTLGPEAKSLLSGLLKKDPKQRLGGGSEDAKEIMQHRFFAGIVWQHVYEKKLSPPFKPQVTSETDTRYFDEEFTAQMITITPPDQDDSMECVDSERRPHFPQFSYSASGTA

`COc1cc2ncn(-c3cc(OCc4ccccc4C(F)(F)F)c(C(N)=O)s3)c2cc1OC` [GW843682X] showed a % of control in assay [1] of 0.3%.
For `CN(c1ccnc(CNc2nc(Nc3ccc4c(c3)CC(=O)N4)ncc2C(F)(F)F)n1)S(C)(=O)=O` [PF-00911705], the % of control in [2] came out at 0%; in assay [3], 5.5%; in [4], 0.7%; on Aurora kinase B, 9.9%.
As to `CCOc1cn(-c2ccc(F)cc2C)nc1C(=O)Nc1ccc(Oc2ccnc3cc(OC)c(OC)cc23)c(F)c1`, in assay [5], the % of control is < 10%.
As to `CC[C@@H]1C(=O)N(C)c2cnc(Nc3ccc(C(=O)NC4CCN(C)CC4)cc3OC)nc2N1C1CCCC1`, the % of control turned out to be 90% in assay [6], 86% in assay [7] and 98% in assay [8].
Broadly, the IC50 is the concentration that inhibits the measured activity by half. Read a low IC50 as inhibition by little substance. `C[C@H](c1ccnc(Nc2nc3ccc(-c4cc(N(C)C)ncn4)cc3[nH]2)c1)N1CCN(C(=O)CC(F)(F)F)CC1` [BAY-985]: in assay [9], the concentration for half-maximal inhibition (IC50) was > 20000 nM.
In the case of `CN1C(=O)c2sccc2N(C)c2nc(Nc3ccc(S(N)(=O)=O)cc3)ncc21`, the % of control came to 0.05% in [10]; 1.6% in assay [11]; 6.8% in assay [12]; 5.5% in assay [13]; 9.5% in [14]. Also, in [15], half-maximal inhibition (IC50) was put at 16.6 nM.
As to `CNC(=O)c1ccc(Nc2ncc(C(F)(F)F)c(NCc3nccnc3N(C)S(C)(=O)=O)n2)cc1` [DEFACTINIB], the % of control in [16] came to 8.3%.
